Experimental data taken from patent US20230123334A1, “AMINO LIPID COMPOUND, PREPARATION METHOD THEREFOR, AND APPLICATION THEREOF” (SHENZHEN SHENXIN BIOTECHNOLOGY CO., LTD., priority 2020, published 2023).

Legend:
HEK293 cells [1] = experiment: Preliminary screening as mRNA vectors, EGFP mRNA transfection of HEK293 cells; format: cell-based; conditions: HEK293 cells, 96-well plates, EGFP mRNA 50 ng per well; percentage of GFP fluorescent cells relative to total number of cells (Hoechst)
Summary of the method: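 Each well of HEK293 cells received 50 ng of EGFP mRNA. Efficiency was expressed as percent GFP-expressing cells over Hoechst-defined total cell number.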

HEK293 cells [2] = experiment: Preliminary screening as DNA vectors, GFP transfection of HEK293 cells; format: cell-based; conditions: HEK293 cells; lipid/DOPE liposome with 75 ng plasmid DNA (psin-EGFP-IRES-Puro); number of cells expressing GFP divided by total number of nuclei (Hoechst)
Summary of the method: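 Lipid + DOPE liposomes (NaOAc, pH 5.6) complexed w/ 75 ng psin-EGFP-IRES-Puro, 30 min RT; added to 3-5×10^4 HEK293/well, 37° C. Hoechst 0.2 μg/mL at 20-24 h, imaged after further 20-24 h. Efficiency = GFP+ cells / total nuclei.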

SMILES: CCCCCCCCCCCCN(CCCCCCCCCCCC)c1nc(NCCCCCC)nc(NCCN2CCCCC2)n1 [N6^2N12D4]
- Absolute mRNA transfection efficiency in HEK293 cells (HEK293 cells [1]): 0.0%
- Absolute DNA transfection efficiency in HEK293 cells (HEK293 cells [2]): 0.2%

SMILES: CCCCCCCCCCCCN(CCCCCCCCCCCC)c1nc(NCCCCCC)nc(NCCN2CCN(C)CC2)n1 [N6^2N12D5]
- Absolute mRNA transfection efficiency in HEK293 cells (HEK293 cells [1]): 0.0%
- Absolute DNA transfection efficiency in HEK293 cells (HEK293 cells [2]): 0.2%

SMILES: CCCCCCCCCCCCN(CCCCCCCCCCCC)c1nc(NCCCCCC)nc(NCCCN(C)C)n1 [N6^2N12D6]
- Absolute mRNA transfection efficiency in HEK293 cells (HEK293 cells [1]): 0.1%
- Absolute DNA transfection efficiency in HEK293 cells (HEK293 cells [2]): 0.4%

SMILES: CCCCCCCCCCCCN(CCCCCCCCCCCC)c1nc(NCCCCCC)nc(NCCN(CC)CC)n1 [N6^2N12D7]
- Absolute mRNA transfection efficiency in HEK293 cells (HEK293 cells [1]): 0.3%
- Absolute DNA transfection efficiency in HEK293 cells (HEK293 cells [2]): 0.1%

SMILES: CCCCCCCCCCCCN(CCCCCCCCCCCC)c1nc(NCCCCCC)nc(NCCCN2CCOCC2)n1 [N6^2N12D8]
- Absolute mRNA transfection efficiency in HEK293 cells (HEK293 cells [1]): 0.0%
- Absolute DNA transfection efficiency in HEK293 cells (HEK293 cells [2]): 0.0%

SMILES: CCCCCCCCCCCCN(CCCCCCCCCCCC)c1nc(NCCCCCC)nc(NCCCN2CCN(C)CC2)n1 [N6^2N12D9]
- Absolute mRNA transfection efficiency in HEK293 cells (HEK293 cells [1]): 0.0%
- Absolute DNA transfection efficiency in HEK293 cells (HEK293 cells [2]): 0.0%

SMILES: CCCCCCCCCCCCN(CCCCCCCCCCCC)c1nc(NCCCCCC)nc(NCC2CCN(C)CC2)n1 [N6^2N12D10]
- Absolute mRNA transfection efficiency in HEK293 cells (HEK293 cells [1]): 0.0%
- Absolute DNA transfection efficiency in HEK293 cells (HEK293 cells [2]): 0.4%

SMILES: CCCCCCCCCCCCN(CCCCCCCCCCCC)c1nc(NCCCCCCC)nc(NCCN(C)C)n1 [N7^2N12D1]
- Absolute mRNA transfection efficiency in HEK293 cells (HEK293 cells [1]): 3.5%
- Absolute DNA transfection efficiency in HEK293 cells (HEK293 cells [2]): 3.6%

SMILES: CCCCCCCCCCCCN(CCCCCCCCCCCC)c1nc(NCCCCCCC)nc(NCCN2CCOCC2)n1 [N7^2N12D2]
- Absolute mRNA transfection efficiency in HEK293 cells (HEK293 cells [1]): 0.9%
- Absolute DNA transfection efficiency in HEK293 cells (HEK293 cells [2]): 1.7%

SMILES: CCCCCCCCCCCCN(CCCCCCCCCCCC)c1nc(NCCCCCCC)nc(NCCN2CCCC2)n1 [N7^2N12D3]
- Absolute mRNA transfection efficiency in HEK293 cells (HEK293 cells [1]): 6.8%
- Absolute DNA transfection efficiency in HEK293 cells (HEK293 cells [2]): 2.5%

SMILES: CCCCCCCCCCCCN(CCCCCCCCCCCC)c1nc(NCCCCCCC)nc(NCCN2CCCCC2)n1 [N7^2N12D4]
- Absolute mRNA transfection efficiency in HEK293 cells (HEK293 cells [1]): 3.7%
- Absolute DNA transfection efficiency in HEK293 cells (HEK293 cells [2]): 1.2%

SMILES: CCCCCCCCCCCCN(CCCCCCCCCCCC)c1nc(NCCCCCCC)nc(NCCN2CCN(C)CC2)n1 [N7^2N12D5]
- Absolute mRNA transfection efficiency in HEK293 cells (HEK293 cells [1]): 2.4%
- Absolute DNA transfection efficiency in HEK293 cells (HEK293 cells [2]): 0.9%

SMILES: CCCCCCCCCCCCN(CCCCCCCCCCCC)c1nc(NCCCCCCC)nc(NCCCN(C)C)n1 [N7^2N12D6]
- Absolute mRNA transfection efficiency in HEK293 cells (HEK293 cells [1]): 4.8%
- Absolute DNA transfection efficiency in HEK293 cells (HEK293 cells [2]): 0.7%

SMILES: CCCCCCCCCCCCN(CCCCCCCCCCCC)c1nc(NCCCCCCC)nc(NCCN(CC)CC)n1 [N7^2N12D7]
- Absolute mRNA transfection efficiency in HEK293 cells (HEK293 cells [1]): 1.9%
- Absolute DNA transfection efficiency in HEK293 cells (HEK293 cells [2]): 0.6%

SMILES: CCCCCCCCCCCCN(CCCCCCCCCCCC)c1nc(NCCCCCCC)nc(NCCCN2CCOCC2)n1 [N7^2N12D8]
- Absolute mRNA transfection efficiency in HEK293 cells (HEK293 cells [1]): 2.7%
- Absolute DNA transfection efficiency in HEK293 cells (HEK293 cells [2]): 1.6%

SMILES: CCCCCCCCCCCCN(CCCCCCCCCCCC)c1nc(NCCCCCCC)nc(NCCCN2CCN(C)CC2)n1 [N7^2N12D9]
- Absolute mRNA transfection efficiency in HEK293 cells (HEK293 cells [1]): 5.4%
- Absolute DNA transfection efficiency in HEK293 cells (HEK293 cells [2]): 1.9%

SMILES: CCCCCCCCCCCCN(CCCCCCCCCCCC)c1nc(NCCCCCCC)nc(NCC2CCN(C)CC2)n1 [N7^2N12D10]
- Absolute mRNA transfection efficiency in HEK293 cells (HEK293 cells [1]): 2.0%
- Absolute DNA transfection efficiency in HEK293 cells (HEK293 cells [2]): 1.4%

SMILES: CCCCCCCCCCCCN(CCCCCCCCCCCC)c1nc(NCCCCCCCC)nc(NCCN(C)C)n1 [N8^2N12D1]
- Absolute mRNA transfection efficiency in HEK293 cells (HEK293 cells [1]): 0.2%
- Absolute DNA transfection efficiency in HEK293 cells (HEK293 cells [2]): 0.0%

SMILES: CCCCCCCCCCCCN(CCCCCCCCCCCC)c1nc(NCCCCCCCC)nc(NCCN2CCOCC2)n1 [N8^2N12D2]
- Absolute mRNA transfection efficiency in HEK293 cells (HEK293 cells [1]): 1.4%
- Absolute DNA transfection efficiency in HEK293 cells (HEK293 cells [2]): 0.1%

SMILES: CCCCCCCCCCCCN(CCCCCCCCCCCC)c1nc(NCCCCCCCC)nc(NCCN2CCCC2)n1 [N8^2N12D3]
- Absolute mRNA transfection efficiency in HEK293 cells (HEK293 cells [1]): 0.9%
- Absolute DNA transfection efficiency in HEK293 cells (HEK293 cells [2]): 0.1%

SMILES: CCCCCCCCCCCCN(CCCCCCCCCCCC)c1nc(NCCCCCCCC)nc(NCCN2CCCCC2)n1 [N8^2N12D4]
- Absolute mRNA transfection efficiency in HEK293 cells (HEK293 cells [1]): 0.2%
- Absolute DNA transfection efficiency in HEK293 cells (HEK293 cells [2]): 0.0%

SMILES: CCCCCCCCCCCCN(CCCCCCCCCCCC)c1nc(NCCCCCCCC)nc(NCCN2CCN(C)CC2)n1 [N8^2N12D5]
- Absolute mRNA transfection efficiency in HEK293 cells (HEK293 cells [1]): 0.4%
- Absolute DNA transfection efficiency in HEK293 cells (HEK293 cells [2]): 0.0%

SMILES: CCCCCCCCCCCCN(CCCCCCCCCCCC)c1nc(NCCCCCCCC)nc(NCCCN(C)C)n1 [N8^2N12D6]
- Absolute mRNA transfection efficiency in HEK293 cells (HEK293 cells [1]): 0.9%
- Absolute DNA transfection efficiency in HEK293 cells (HEK293 cells [2]): 0.0%
